The values below come from PubChem BioAssay (NCI).

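Tested at 5 concentrations; 48 h exposure; 96-well plates; endpoints linearly interpolated, else capped at highest concentration. GI50 = concentration required for 50% inhibition of growth. The concentration for full growth arrest is given as TGI.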

Among the test systems are SW-620 colon; SF-268 CNS; SNB-19 CNS; SK-OV-3 ovarian; SK-MEL-2 melanoma; CAKI-1 renal; HOP-92 NSCLC; CCRF-CEM leukemia; RPMI-8226 leukemia.
Assay in all cases: DTP human tumour cell line panel, 48 h

What is called TGI is the concentration giving total growth inhibition. Higher therefore signals lower sensitivity of the cells. With `NC(=O)NNC(=O)NC12CC3CC(CC(C3)C1)C2`, the TGI with SW-620 colon, in the assay with SF-268 CNS, in the assay with SNB-19 CNS, in the assay with SK-OV-3 ovarian, in the assay on SK-MEL-2 melanoma and in the assay on CAKI-1 renal was over 100 µM each time. The TGI in the assay with HOP-92 NSCLC and with CCRF-CEM leukemia was over 100 µM throughout.

Regarding `O=C(CC1SC(=Nc2ccccc2Cl)NC1=O)Nc1ccc(Cl)cc1Cl` (stereo not given), the TGI with RPMI-8226 leukemia, with SW-620 colon, in the assay with SF-268 CNS, with SNB-19 CNS, in the assay on SK-MEL-2 melanoma and with HOP-92 NSCLC was over 100 µM each time. In addition, in the assay with CCRF-CEM leukemia, the TGI was over 100 µM.

With `O=c1[nH]cc(F)c(=O)n1C1OC(CO)C(O)C1O` (stereo not given), the TGI in the assay on RPMI-8226 leukemia, in the assay on SW-620 colon, in the assay on SF-268 CNS, in the assay with SNB-19 CNS, in the assay on SK-OV-3 ovarian and in the assay on SK-MEL-2 melanoma was over 100 µM in each case. The TGI in the assay on CAKI-1 renal, with HOP-92 NSCLC and in the assay with CCRF-CEM leukemia was over 100 µM each time.

For `O=C(c1nc2ccccc2[nH]c1=O)C(O)c1ccccc1` (stereo not given), the TGI in the assay on RPMI-8226 leukemia, with SW-620 colon, with SF-268 CNS, in the assay with SNB-19 CNS, with SK-OV-3 ovarian and in the assay on SK-MEL-2 melanoma was over 100 µM in each case. For the same compound, the concentration for total growth inhibition (TGI) in the assay on CAKI-1 renal, in the assay on HOP-92 NSCLC and with CCRF-CEM leukemia was over 100 µM in each case.

For the compound `CC(=O)OCCOCNC(=S)N/N=C/c1cc(Br)cs1`, the TGI in the assay on RPMI-8226 leukemia, in the assay on SW-620 colon, with SF-268 CNS, in the assay with SNB-19 CNS, with SK-OV-3 ovarian and in the assay with SK-MEL-2 melanoma was over 100 µM each time. Moreover, in the assay on CCRF-CEM leukemia, the TGI was over 100 µM.

On to `CC1(c2ccccc2Cl)C(C#N)C(=O)NC(=O)C1C#N` (stereo not given), for which the TGI in the assay with RPMI-8226 leukemia is 59.6 µM; in the assay on SW-620 colon, over 100 µM; in the assay on SF-268 CNS, over 100 µM; in the assay with SNB-19 CNS, 92.8 µM; in the assay with SK-OV-3 ovarian, over 100 µM; in the assay with SK-MEL-2 melanoma, over 100 µM. The values for the TGI in the assay with CAKI-1 renal, in the assay with HOP-92 NSCLC and in the assay with CCRF-CEM leukemia were over 100 µM, 59.8 µM and over 100 µM, respectively.

In the case of `COCOCC/C=C/C=O`, the TGI with RPMI-8226 leukemia, with SW-620 colon, in the assay on SF-268 CNS, with SNB-19 CNS, with SK-OV-3 ovarian and in the assay with SK-MEL-2 melanoma was over 100 µM each time. For the same compound, the TGI in the assay on HOP-92 NSCLC and in the assay on CCRF-CEM leukemia was over 100 µM in each case.

Turning to `Cc1ccc(S(=O)(=O)N/N=C(/CC(=O)c2c(C)n([O-])c3ccccc3[n+]2=O)C(=O)Nc2ccccc2C)cc1`, the TGI in the assay with RPMI-8226 leukemia, in the assay with SW-620 colon, in the assay on SF-268 CNS, in the assay on SNB-19 CNS, in the assay with SK-OV-3 ovarian and with SK-MEL-2 melanoma was over 100 µM throughout. The TGI in the assay on CAKI-1 renal and in the assay on HOP-92 NSCLC was over 100 µM in each case.

As to `Cc1ccc(C)c(N2C(=O)C(=O)C(c3nc4ccccc4s3)/C(=N/NC(=O)NN)C2=O)c1` (stereo not given), the TGI with SW-620 colon, in the assay on SF-268 CNS, in the assay on SNB-19 CNS, in the assay on SK-OV-3 ovarian, in the assay on SK-MEL-2 melanoma and in the assay on CAKI-1 renal was over 100 µM throughout. Further, the TGI in the assay with HOP-92 NSCLC and in the assay on CCRF-CEM leukemia was over 100 µM in each case.

Regarding `COc1ccc(-c2cc(C(=O)Nc3ccc(C)c(C)c3)nc(NC#N)n2)cc1`, the TGI in the assay on RPMI-8226 leukemia, in the assay with SW-620 colon, with SF-268 CNS, with SNB-19 CNS, in the assay on SK-OV-3 ovarian and with SK-MEL-2 melanoma was over 100 µM throughout. For the same compound, the total growth inhibition concentration (TGI) in the assay on CAKI-1 renal and in the assay on CCRF-CEM leukemia was over 100 µM in each case.

On to `CC1(C)CC(=O)C(/C(=N/NC(=S)NN)C(=O)Nc2nc3ccc([N+](=O)[O-])cc3s2)C(=O)C1`, for which the TGI in the assay with SW-620 colon, in the assay with SF-268 CNS, in the assay with SNB-19 CNS, in the assay on SK-OV-3 ovarian, with SK-MEL-2 melanoma and in the assay with CAKI-1 renal was over 100 µM each time. The TGI in the assay with HOP-92 NSCLC and in the assay on CCRF-CEM leukemia was over 100 µM throughout.

What is called GI50 is the concentration at which growth is held to half of that of the control. As to `COc1cc2c(cc1OCCCCN1CCN(C(=S)SCCC(C#N)(c3ccccc3)c3ccccc3)CC1)N=C[C@@H]1CCCN1C2=O`, the GI50 in the assay on RPMI-8226 leukemia is 0.496 µM; in the assay on SNB-19 CNS, 1.67 µM; with SK-OV-3 ovarian it was 2.96 µM; in the assay on SK-MEL-2 melanoma, 1.04 µM; with CAKI-1 renal, 0.597 µM; in the assay on HOP-92 NSCLC, 1.07 µM. In the assay with CCRF-CEM leukemia, the GI50 is 0.532 µM. Moreover, the TGI in the assay with RPMI-8226 leukemia came out at 2.89 µM; in the assay with SNB-19 CNS it was 3.98 µM; with SK-OV-3 ovarian, 9.81 µM; in the assay with SK-MEL-2 melanoma, 2.35 µM; in the assay with CAKI-1 renal, 2.7 µM; in the assay on HOP-92 NSCLC it was 14.3 µM. In the assay on CCRF-CEM leukemia, the TGI is over 100 µM.

In the case of `C[CH2][Sn]([CH2]C)([O]C(=O)c1ccccc1OC)[O][Sn]([CH2]C)([CH2]C)[O]C(=O)c1ccccc1OC`, the GI50 with SW-620 colon is 44.8 µM; with SF-268 CNS it was over 100 µM; in the assay on SNB-19 CNS, over 100 µM; with SK-OV-3 ovarian, over 100 µM; in the assay on SK-MEL-2 melanoma, 91.5 µM; with CAKI-1 renal, 34.6 µM. Also, the GI50 is 89.4 µM in the assay with HOP-92 NSCLC and 41.2 µM with CCRF-CEM leukemia. Also, the TGI with SW-620 colon, in the assay with SF-268 CNS, with SNB-19 CNS, in the assay on SK-OV-3 ovarian, with SK-MEL-2 melanoma and in the assay with CAKI-1 renal was over 100 µM in each case. In addition, the total growth inhibition concentration (TGI) in the assay with HOP-92 NSCLC and with CCRF-CEM leukemia was over 100 µM throughout.

Turning to `COc1ccc(/C=C2\CCC(C)(CN(C)C)C2=O)cc1OC` (stereo not given), the TGI with RPMI-8226 leukemia, in the assay on SW-620 colon, in the assay on SF-268 CNS, in the assay with SNB-19 CNS, in the assay with SK-MEL-2 melanoma and in the assay on CAKI-1 renal was over 100 µM in each case. Further, the TGI in the assay with HOP-92 NSCLC and with CCRF-CEM leukemia was over 100 µM each time.

Consider `c1ccc(CCc2cccnc2)nc1`, for which the TGI in the assay with RPMI-8226 leukemia, with SW-620 colon, with SF-268 CNS, in the assay with SNB-19 CNS, in the assay on SK-OV-3 ovarian and in the assay with SK-MEL-2 melanoma was over 100 µM each time. Further, the concentration for total growth inhibition (TGI) with CAKI-1 renal and in the assay with HOP-92 NSCLC was over 100 µM in each case.
